The values below come from patent publication US20220183290A1, “CHEMICALS WHICH ALTER THE PRODUCTION OF METABOLITES IN CULTIVATED PLANTS” (priority 2017, published 2022).

The subject of series [1] is Cannabis sp. hemp varietal clones (Happy Camper). In words: Example 1: indoor cultivation experiment, elicitor treatments, secondary metabolite content of flowers. In kind it is in vivo. To be noted: for terpene production (in words): applied alone or in conjunction with other elicitor treatments; for Total terpene production, change: either MeJA and/or SA (pooled) vs control or si only. From the text:
Applicant performed an indoor cultivation experiment with 30 identical Cannabis sp. hemp varietal clones (Happy Camper, CBDRx LLC, Colorado). Each of the thirty plants was randomly assigned to one of six treatment groups to test the efficacy and effectiveness of each elicitor compound in isolation or in combination. Plants were maintained in an isolated indoor growing environment under eight, 600-watt double-ended electronic high pressure sodium lamps (Gavita International B.V) under a photoperiod of 12 hours of light per 24-hour day and potted in 1-gallon black plastic pots with a 55% coco coir/45% perlite media (Miller Soils LLC, Longmont, Colo., USA), then transplanted into 10-gallon fabric pots (Smart Pot, High Caliper Growing, USA) filled with a mixture of 75% coco coir and 25% cork (DNA-Mills Ltd, London, England), irrigated as needed with tap water and fertilized consistently to maintain good health with a 4-20-39 base nutrient supplemented with 15-0-0 Calcium Nitrate and commercially available magnesium sulfate (Hydro Gardens International, Colorado Springs, Colo.) at a rate of 300-500 ppm (TDS) as needed. A microbial inoculant (Tribus Original, Impello Biosciences, Ft. Collins, Colo.) was applied at a rate of 1 mL/gallon of nutrient solution every watering to improve plant health. Drip emitters and an automated watering system supplied water and nutrients equally to each plant. Temperatures in the growing environment were maintained at 75° F.±15° F. with a relative humidity range of 30-60%. Every 14 days of growth, all plants were supplemented with a fish protein hydrolysate at a rate of 5 ml/gallon of the previously mentioned nutrient solution to improve nutrition (Innate Bloom 4-2-1, Impello Biosciences, Colorado).
Treatment groups included (1) applications of MeJA as a foliar spray at a concentration of 7.5 mM, (2) SA as a foliar spray at a concentration of 0.5 mM, (3) SiA as a root drench at a concentration of 3 mM, (4) MeJA as a foliar spray at a concentration of 7.5 mM and a root drench of SiA at a concentration of 3 mM, and (5) MeJA as a foliar spray at a concentration of 7.5 mM and a root drench of SiA at a concentration of 3 mM and foliar applications of SA at a concentration of 0.5 mM. The control group was not treated with any applications aside from normal fertilization. Foliar applications of MeJA were performed in the morning hours, within 30 minutes of daybreak, with applications covering plant leaves until dripping. Applications of SA for all SA treatment groups were performed in the morning hours, within 30 minutes of daybreak, with applications covering plant leaves until dripping. Applications of SiA were performed by hand additions of SiA mixtures at the desired concentration to the plant roots of treatment plants; control plants were treated with plain water in the same volume at the same time without the addition of SiA.
7.5 mM solutions of MeJA (mixture of isomers) were prepared in 1-liter volumes using 93% purity MeJA stock solution (TCI America, CAS #[…]) added to reverse osmosis water dropwise with a pipettor while stirring. The pH of the final solution was not adjusted. 0.5 mM solutions of SA were prepared from a 0.5M stock solution, which was prepared using Salicylic Acid powder (ThermoFisher Scientific, CAS #69-72-7), dissolved in 200-proof anhydrous EtOH, denatured (VWR Life Sciences) and stored in a sealed glass bottle. Plant-useable solution was prepared by diluting 1000 μL, of the stock SA solution in 999 mL of reverse osmosis water. Foliar applications of MeJA and SA were made with a 1-L volume low-pressure hand-pump sprayer (Mondi Products LTD, Canada). Silicic Acid solutions were prepared as needed using Silicic Acid stock powder (extra pure light DAB, Millipore Sigma, CAS #7699-41-4), dissolved in reverse osmosis water to the desired final concentration.
Plants were maintained under identical conditions in the same growing environment. […]

Series [2] concerns plants from clone (Charlotte x Tangie). In words: Example 4: flower yield / plant weight with varying concentrations of MeJA foliar spray. It counts as in vivo, Cannabis sativa. From the text:
Example 4: Assessment of Flower Yield in plants treated with varying concentrations of MeJA. […] In turn, we designed an experiment to evaluate the efficacy and effectiveness of applying MeJA as a foliar spray to plants in different concentrations.
Fourteen (14) identical plants from clone (Charlotte x Tangie, CBDRx) were cultivated in 1-gallon black plastic pots in a media mixture of 55% coco coir, 45% perlite (Miller Soils LLC, Colorado). Plants were rooted in 1-inch A-OK rockwool cubes (Grodan, B.V.) uniformly prior to transplant into the 1-gallon pots. At the time of transplant, plants were also transitioned from a photoperiod of 18 hours of light per day to a photoperiod of 12 hours of light per day to induce flowering. Each plant was maintained with a standard, commercially available 3-part (4-20-39, CaNO3, MgSO4) nutrient solution at a recommended rate of 350 ppm (Hydro Gardens International, CO), hand watered as needed with 1 L per plant. Plants were randomly assigned to one of four groups, including three treatment groups and one control group: 0 mM MeJA (control), 5 mM MeJA (low), 7.5 mM MeJA (med), and 10 mM MeJA (high). Plants were maintained under identical environmental conditions on a 4′×8′ black plastic table (Botanicare, USA) under 1200 w of light (Gavita Inc, Ne). […]

[3] abbreviates: day 28, MeJA alone or in conjunction with other elicitors vs non-MeJA treatment, p≤0.05.

For the compound `CC/C=C\CC1C(=O)CCC1CC(=O)OC` (stereo not shown) [MeJA, Methyl Jasmonate], the “terpene production (in words)” value in series [1] is “increased terpene production”. Besides, in series [1] (setting [3]), the “Total cannabinoids concentration, change” value is “+61.96%”; the “total CBD concentration, change” value is “+61.49%”; the “total THC concentration, change” value is on record as “+61.30%”. For the same compound, the “Total terpene production, change” value in series [1] (day 28, p≤0.05) is given as “+35%”. The “Total CBDA, change” value in series [1] (day 42, MeJA treatments vs no MeJA treatments, p≤0.0005) is on record as “+54.99%”. The “Total THC-A, change” value in series [1] (day 42, MeJA treatments vs no MeJA treatments, significance less than 0.0005) is “+56.82%”. In series [1] (day 42, groups with MeJA alone or in combination vs groups without MeJA, p≤0.001), the “Total cannabinoids (THC, THCA, CBD, CBDA), change” value was “+54.67%”. The “total cannabinoid concentration, change” value in series [1] (day 42, plants that received MeJA treatments (MeJA or MeJA+SiA or MeJA+SiA+SA) vs control group, p≤0.005) is “+41.49%”. Also, the “total cannabinoid contents, change” value in series [1] (day 63, some sort of MeJA treatment (MeJA only, MeJA with SiA, or ALL) vs control group, p≤0.05) is listed as “+33.11%”. Further, in series [1] (day 63, some sort of MeJA treatment (MeJA only, MeJA with SiA, or ALL) vs no MeJA (control, SA only, SiA only), p≤0.000001), the “total cannabinoid contents, change” value is given as “+58.64%”. Moreover, the “CBD content, change” value in series [1] (day 63, vs control plants, p≤0.05 (ALL: p≤0.01)) is given as “+23.27%”. For the same compound, the “cannabinoid production (in words)” value in series [1] (throughout the flowering cycle, applied alone or in conjunction with other treatments) was “consistently increased cannabinoid production”. Moreover, the “impact on plant performance” value in series [2] (exogenous foliar applications, 5-10 mM MeJA) is “did not negatively impact plant performance”. The “differences in weights between the treatment groups” value in series [2] (foliar spray 0, 5, 7.5, 10 mM MeJA every 14 days from day 7 of the reproductive cycle) is “No significant differences”.

Turning to `O=C(O)c1ccccc1O` [SA, Salicylic acid], the “terpene production (in words)” value in series [1] was “increased terpene production”. In addition, in series [1] (applied independently without supplemental MeJA applications), the “THCA production (in words)” value is “decreased THCA production”. Besides, the “Total terpene production, change” value in series [1] (day 28, p≤0.05) was “+35%”. Further, the “THCA, change” value in series [1] (day 63, SA treatment plants vs control plants, p≤0.05) was −45.67%.
